Two compounds from US6500959B1, “Pyrrolidine derivatives and processes for preparing same” (GPI NIL Holdings, Inc., priority 1995, dated 2002) can be followed below.

Entries after “also recorded” stand apart in the source; their conditions may differ.

One assay concerns sciatic nerve. The assay can be described thus: Sciatic nerve axotomy (crush), axon number and myelination. The class given is in vivo, Sprague-Dawley rats. The source says: FIGS. 3A-3D are photomicrographs of rat […] sections. […] Sciatic nerves of 150 g male Sprague-Dawley rats were crushed at the level of the hips. […] Animals were sacrificed, sciatic nerves removed and nerve segments 2 mm distal to the crush site were sectioned and stained with Holmes silver stain (to assess axon number) and Luxol fast blue (to assess remyelination). The micrographs show sciatic nerve sections of sham operated rats, vehicle-treated lesioned animals. […] Six-week old male Sprague-Dawley rats were anesthetized, and the sciatic nerve exposed and crushed, at the level of the hip, by forceps. Test compounds or vehicle were administered subcutaneously just prior to the lesion and daily for the following 18 days. Sections of the sciatic nerve were stained with Holmes silver stain to quantify the number of axons, and Luxol fast blue to quantify the level of myelination. […] “Sham” denotes control animals that received vehicle but were not lesioned; “Vehicle” denotes animals that were lesioned and received only vehicle (i.e., no drug).

Assay [1] concerns chick dorsal root ganglia. The assay can be described thus: Chick dorsal root ganglion cultures and neurite outgrowth. The assay is classed as cell-based. The conditions noted are these: 48 h; for EC50: Gallus gallus, read-out: ED50, neurite outgrowth. The text has this:
Forty-eight hours later, the number of neurite with a length greater than one DRG explant was quantitated. The number of neurites expressed in untreated DRG's was subtracted from the neurite number of Example 17—treated samples to yield Example 17—dependent specific neurite outgrowth.
Forty-eight hours later, the number of neurite with a length greater than one DRG explant was quantitated. The number of neurites expressed in untreated DRG's was subtracted form the neurite number of Example 17—treated samples to yield Example 17—dependent specific neurite outgrowth. Quantitative dose-dependent neurite outgrowth elicited by Example 17 is presented.
Dorsal root ganglia were dissected from chick embryos of ten day gestation. Whole ganglion explants were cultured on thin layer Matrigel-coated 12 well plates with Liebovitz L15 plus high glucose media supplemented with 2 mM glutamine and 10% fetal calf serum, and also containing 10 μM cytosine β-D arabinofuranoside (Ara C) at 37° C. in an environment containing 5% CO2. Twenty-four hours later, the DRGs were treated with various concentrations of nerve growth factor, immunophilin ligands or combinations of NFG plus drugs. Forty-eight hours after drug treatment, the ganglia were visualized under phase contrast or Hoffman Modulation contrast with a Zeiss Axiovert inverted microscope. Photomicrographs of the explants were made, and neurite outgrowth was quantitated. Neurites longer than the DRG diameter were counted as positive, with total number of neurites quantitated per each experimental condition. Three to four DRGs are cultured per well, and each treatment was performed in duplicate.

For the next assay, the system named is dopaminergic neurons. The assay can be described thus: MPTP model of Parkinson's Disease in mice. The class given is in vivo, CD1 mice. The method, then: FIG. 4 is a graph of [^3H]-CFT binding per μg of Striatal Membrane Protein. […] CD1 mice (25 g) were treated daily with 30 mg/kg MPTP (i.p.) for 5 days. […] After eighteen days, the mice were sacrificed, striata from 5 animals per group were pooled and processed into a washed membrane preparation. Binding of [3H]-CFT to these striated membrane preparations of various groups was quantitated to determine dopamine transporter levels on viable nerve terminals. Binding in the presence of 10 μM unlabelled CFT provided on estimate of nonspecific binding, which as subtracted from the total binding to quantitative specific [3H]-CFT bound. Binding was normalized to the protein content of the striatal membranes from each experimental group. Coronal and saggital brain sections from MPTP and drug treated animals were stained with anti-tyrosine hydroxylase (TH) Ig to quantitate striatal, medial forebrain bundle axonal and nigral levels of TH, which is indicative of functional dopaminergic neurons. […] Binding of [3H]CFT, a radioligand for the dopamine transporter, to the […] membranes was done to quantitate the level of the dopamine transporter (DAT) following lesion and drug treatment. Immunostaining was performed on saggital and coronal brain sections using anti-tyrosine hydoxylase Ig to quantitate survival and recovery of dopaminergic neurons. […]

Where [2] appears, read: 30 mg/kg s.c., just prior to lesion and daily for 18 days.

With `CCC(C)(C)C(=O)C(=O)N1CCC[C@H]1C(=O)OCCCc1ccccc1` [Example 1, 3-phenyl-1-propyl (2S)-1-(3,3-dimethyl-1,2-dioxopentyl)-2-pyrrolidinecarboxylate], in the assay with sciatic nerve (setting [2]), the “axon number, decrease as compared to non-lesioned control” value was 5% and the “degree of myelination, decrease as compared to control” value came out at 50%. Further, the “neuronal regeneration, appearance of sciatic nerve sections” value in the assay on sciatic nerve (30 mg/kg s.c., compared with sham and vehicle-treated lesioned animals) is reported as “striking similarity to the sham treated animals; also recorded: promotes neuronal regeneration following sciatic nerve lesions”. Also, the “Axon Number (% Control)” value in the assay with sciatic nerve (lesioned rats, 30 mg/kg s.c. daily, Holmes silver stain) is recorded as 100 % Control. Further, the “Myelin Level” value in the assay on sciatic nerve (lesioned rats, 30 mg/kg s.c. daily, Luxol fast blue, Sham = 100) stood at 50. The EC50 in assay [1] was 53 nM.

`CCC(C)(C)C(=O)C(=O)N1CCC[C@H]1C(=O)OCCCc1cccnc1` [Example 17, 3-(3-Pyridyl)-1-propyl (2S)-1-(3,3-dimethyl-1,2-dioxopentyl)-2-pyrrolidinecarboxylate]: in the assay on dopaminergic neurons (40 mg/kg s.c. in addition to MPTP, striatal membranes, dopamine transporter level), the “recovery of [3H]-CFT binding” value is given as “greater than 90%”. In the assay with dopaminergic neurons (10-40 mg/kg s.c., striatum, nigra, medial forebrain bundle, versus MPTP/Vehicle), the “recovery of TH-stained dopaminergic neurons (tyrosine hydroxylase immunostaining)” value was “nearly quantitative recovery; also recorded: clear and marked recovery of functional neurons”. In addition, the EC50 in assay [1] came out at 0.05 nM. The “neurite outgrowth in sensory neuronal cultures” value in assay [1] (chick DRG explants, various concentrations) is “potently promotes neurite outgrowth”.
